This assay has as its system L1210 leukemia ip in BDF1 mice, survival T/C. The assay can be described thus: NCI In Vivo Anticancer Drug Screen. Data for tumor model L1210 Leukemia (intraperitoneal) in B6D2F1 (BDF1) mice. Particulars: endpoint: mean survival time, higher = longer survival. The gist of the method: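 Tumor was transplanted into mice, which were then dosed with test compound or vehicle alone. Survival was recorded for each group, and the treated figure was expressed relative to the control figure.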

Where [1] appears, read: dose: 100.0 mg/kg/injection, schedule: Q01DX009 (ip), vehicle: saline.
Where [2] appears, read: dose: 100.0 mg/kg/injection, schedule: Q04DX003 (ip), vehicle: saline.
Where [3] appears, read: dose: 200.0 mg/kg/injection, schedule: Q01DX009 (ip), vehicle: saline.
The mark [4] stands for this setting: dose: 200.0 mg/kg/injection, schedule: Q04DX003 (ip), vehicle: saline.
Where [5] appears, read: dose: 400.0 mg/kg/injection, schedule: Q01DX009 (ip), vehicle: saline.
Where [6] appears, read: dose: 400.0 mg/kg/injection, schedule: Q04DX003 (ip), vehicle: saline.
[7] abbreviates: dose: 100.0 mg/kg/injection, schedule: Q01DX009 (ip), vehicle: Klucel (hydroxypropylcellulose) (HPC).
Setting [8] is: dose: 200.0 mg/kg/injection, schedule: Q01DX009 (ip), vehicle: Klucel (hydroxypropylcellulose) (HPC).
[9] abbreviates: dose: 400.0 mg/kg/injection, schedule: Q01DX009 (ip), vehicle: Klucel (hydroxypropylcellulose) (HPC).

Several values for one entry are separate records, joined by “and”; a condition that tells them apart may be missing. Equal values may be shown once. Toxic doses and inconclusive results are not listed.

For `CCOc1ccc(=O)[nH]n1`, the T/C runs as follows: under setting [1], 93 % of control; under setting [2], 105 % of control; under setting [3], 93 % of control; under setting [4], 101 % of control; under setting [5], 95 % of control; under setting [6], 115 % of control.

For the compound `COc1cc(S(=O)(=O)F)ccc1NC(=O)/C=C/c1ccc([N+](=O)[O-])cc1`, the T/C runs as follows: (dose: 100.0 mg/kg/injection, schedule: Q01DX001 (ip), vehicle: saline) 103 % of control; (dose: 200.0 mg/kg/injection, schedule: Q01DX001 (ip), vehicle: saline) 94 % of control; (dose: 400.0 mg/kg/injection, schedule: Q01DX001 (ip), vehicle: saline) 100 % of control.

As for `CCCCCC(=O)CC(=O)c1cccs1`, the T/C is 100 % of control (dose: 200.0 mg/kg/injection, schedule: Q01DX Z (ip), vehicle: other) and 103 % of control (dose: 400.0 mg/kg/injection, schedule: Q01DX Z (ip), vehicle: other).

`CCOC(=O)C(OCc1ccccc1)(C(=O)OCC)C(C)C`: the T/C reads like this: under setting [1], 97 % of control; under setting [2], 96 % of control; under setting [3], 101 % of control; under setting [4], 102 % of control; under setting [5], 106 % of control; under setting [6], 108 % of control.

As to `CC(O)CN1c2ccccc2Sc2ccc(Cl)cc21` (stereo not given), the T/C is, setting by setting: (dose: 100.0 mg/kg/injection, schedule: Q01DX001 (ip), vehicle: carboxymethylcellulose (CMC)) 97 % of control; (dose: 200.0 mg/kg/injection, schedule: Q01DX001 (ip), vehicle: carboxymethylcellulose (CMC)) 92 % of control; (dose: 400.0 mg/kg/injection, schedule: Q01DX001 (ip), vehicle: carboxymethylcellulose (CMC)) 95 % of control.

For the compound `OCC1OC(n2cnc3c2ncn2nnnc32)C(O)C1O` (stereo not given), the T/C was 100 % of control (dose: 100.0 mg/kg/injection, schedule: Q01DX005 (ip), vehicle: saline) and 110 % of control (dose: 200.0 mg/kg/injection, schedule: Q01DX005 (ip), vehicle: saline).

Regarding `CC(=O)Nc1nnc(SC(C)=O)s1`, the T/C by setting is: under setting [7], 95 % of control and 90 % of control; under setting [8], 95 % of control; under setting [9], 93 % of control and 94 % of control.

In the case of `Nc1ncnc2c1c(C(=O)NO)cn2C1OC(CO)C(O)C1O` (stereo not given), the T/C (dose: 6.25 mg/kg/injection, schedule: Q01DX009 (ip), vehicle: saline) is 153 % of control; the T/C (dose: 12.5 mg/kg/injection, schedule: Q01DX009 (ip), vehicle: saline) was 156 % of control and 171 % of control; the T/C (dose: 25.0 mg/kg/injection, schedule: Q01DX005 (ip), vehicle: saline) was 108 % of control.

For `O=C(NCSC1=NCCS1)NCSC1=NCCS1`, the T/C under setting [7] was 107 % of control; the T/C under setting [2] is 97 % of control; the T/C under setting [8] is 92 % of control; the T/C under setting [4] was 114 % of control; the T/C under setting [9] was 96 % of control; the T/C under setting [6] was 97 % of control.

Regarding `O=C(O)/C=C/C(=O)Nc1cccc(Oc2ccc([N+](=O)[O-])cc2[N+](=O)[O-])c1`, the T/C is, setting by setting: under setting [2], 106 % of control; under setting [4], 111 % of control; under setting [6], 104 % of control.

In the case of `CC(=O)OC1C2OC3C=C(C)CCC3(CO)C(C)(C1O)C21CO1` (stereo not given), the T/C was 101 % of control (dose: 0.8 mg/kg/injection, schedule: Q01DX009 (ip), vehicle: other); 104 % of control (dose: 1.6 mg/kg/injection, schedule: Q01DX009 (ip), vehicle: other); 101 % of control (dose: 3.2 mg/kg/injection, schedule: Q01DX009 (ip), vehicle: other); 114 % of control (dose: 6.4 mg/kg/injection, schedule: Q01DX009 (ip), vehicle: other); 122 % of control (dose: 12.8 mg/kg/injection, schedule: Q01DX009 (ip), vehicle: other); 122 % of control (dose: 25.6 mg/kg/injection, schedule: Q01DX009 (ip), vehicle: other).

For the compound `CC[n+]1cccc(NC(=O)c2ccc(NC(=O)c3ccc(C(=O)Nc4ccc5c(ccc[n+]5CC)c4)cc3)cc2)c1`, the T/C is 90 % of control (dose: 0.12 mg/kg/injection, schedule: Q01DX015 (oral), vehicle: alkali diluted with saline); 90 % of control (dose: 0.25 mg/kg/injection, schedule: Q01DX015 (oral), vehicle: alkali diluted with saline); 101 % of control (dose: 0.5 mg/kg/injection, schedule: Q01DX015 (oral), vehicle: alkali diluted with saline); 107 % of control (dose: 0.55 mg/kg/injection, schedule: Q01DX Z (ip), vehicle: carboxymethylcellulose (CMC)); 112 % of control (dose: 1.0 mg/kg/injection, schedule: Q01DX015 (oral), vehicle: alkali diluted with saline); 181 % of control (dose: 2.2 mg/kg/injection, schedule: Q01DX Z (ip), vehicle: carboxymethylcellulose (CMC)). Besides, the T/C reads like this: (dose: 3.0 mg/kg/injection, schedule: Q01DX015 (ip), vehicle: alkali diluted with saline) 164 % of control; (dose: 4.4 mg/kg/injection, schedule: Q01DX Z (ip), vehicle: carboxymethylcellulose (CMC)) 165 % of control; (dose: 6.0 mg/kg/injection, schedule: Q01DX015 (ip), vehicle: alkali diluted with saline) 120 % of control; (dose: 10.0 mg/kg/injection, schedule: Q01DX Z (ip), vehicle: carboxymethylcellulose (CMC)) 113 % of control; (dose: 11.0 mg/kg/injection, schedule: Q01DX001 (ip), vehicle: alkali diluted with saline) 118 % of control; (dose: 15.0 mg/kg/injection, schedule: Q01DX Z (ip), vehicle: carboxymethylcellulose (CMC)) 110 % of control. Besides, the T/C was 150 % of control (dose: 16.0 mg/kg/injection, schedule: Q01DX001 (ip), vehicle: alkali diluted with saline) and 102 % of control (dose: 25.0 mg/kg/injection, schedule: Q01DX015 (ip), vehicle: alkali diluted with saline).

Regarding `CCN(CC)CCNc1ccccc1[N+](=O)[O-]`, the T/C by setting is: (dose: 75.0 mg/kg/injection, schedule: Q01DX001 (ip), vehicle: acid diluted with saline) 100 % of control; (dose: 75.0 mg/kg/injection, schedule: Q04DX003 (ip), vehicle: acid diluted with saline) 103 % of control; (dose: 150.0 mg/kg/injection, schedule: Q01DX001 (ip), vehicle: acid diluted with saline) 102 % of control; (dose: 150.0 mg/kg/injection, schedule: Q04DX003 (ip), vehicle: acid diluted with saline) 95 % of control; (dose: 300.0 mg/kg/injection, schedule: Q01DX001 (ip), vehicle: acid diluted with saline) 110 % of control.

With `c1ccc2c(c1)-c1cccc3c1c-2cc1ccccc13`, the T/C was 104 % of control (dose: 100.0 mg/kg/injection, schedule: Q01DX001 (ip), vehicle: other); 101 % of control (dose: 200.0 mg/kg/injection, schedule: Q01DX001 (ip), vehicle: other); 95 % of control (dose: 400.0 mg/kg/injection, schedule: Q01DX001 (ip), vehicle: other).

On to `CCOC(=O)C(Cc1ccc(OCc2ccccc2)c(OCc2ccccc2)c1)(NC(C)=O)C(=O)OCC`, for which the T/C (dose: 100.0 mg/kg/injection, schedule: Q04DX003 (ip), vehicle: other) is 102 % of control; the T/C (dose: 200.0 mg/kg/injection, schedule: Q04DX003 (ip), vehicle: other) is 100 % of control; the T/C (dose: 400.0 mg/kg/injection, schedule: Q04DX003 (ip), vehicle: other) was 98 % of control.

On to `CC(C)CC(NC(=O)CNC(=O)CNC(=O)OCc1ccccc1)C(=O)O` (stereo not given), for which the T/C was 100 % of control (dose: 100.0 mg/kg/injection, schedule: Q04DX003 (ip), vehicle: saline with Tween-80); 103 % of control (dose: 200.0 mg/kg/injection, schedule: Q04DX003 (ip), vehicle: saline with Tween-80); 105 % of control (dose: 400.0 mg/kg/injection, schedule: Q04DX003 (ip), vehicle: saline with Tween-80).

As for `c1ccc2c(c1)CCc1cc3c(nc1-2)-c1ccccc1CC3`, the T/C is 97 % of control under setting [7]; 100 % of control (dose: 100.0 mg/kg/injection, schedule: Q04DX003 (ip), vehicle: Klucel (hydroxypropylcellulose) (HPC)); 98 % of control under setting [8]; 100 % of control (dose: 200.0 mg/kg/injection, schedule: Q04DX003 (ip), vehicle: Klucel (hydroxypropylcellulose) (HPC)); 95 % of control under setting [9]; 94 % of control (dose: 400.0 mg/kg/injection, schedule: Q04DX003 (ip), vehicle: Klucel (hydroxypropylcellulose) (HPC)).

Turning to `C=CCOC(=O)Nc1cccc2ccccc12`, the T/C (dose: 100.0 mg/kg/injection, schedule: Q04DX002 (ip), vehicle: Klucel (hydroxypropylcellulose) (HPC)) was 91 % of control; the T/C (dose: 200.0 mg/kg/injection, schedule: Q04DX002 (ip), vehicle: Klucel (hydroxypropylcellulose) (HPC)) is 94 % of control; the T/C (dose: 400.0 mg/kg/injection, schedule: Q04DX002 (ip), vehicle: Klucel (hydroxypropylcellulose) (HPC)) was 94 % of control.
